The source made the active and inactive calls. The calls are words filed in the database; no cut-off is given here.
What was measured:
[1] = tested on: A549; assay: Antiproliferative activity against human A549 cells assessed as reduction in cell viability; assay type: functional, cell-based
[2] = tested on: HCT-116; assay: cells; settings: Homo sapiens
[3] = molecular target: T1, Glutaminase kidney isoform, mitochondrial (Homo sapiens) (UniProt O94925); assay: Potency index, ratio of BPTES IC50 to test compound IC50 for inhibition of GLS1 (unknown origin)
T1 sequence (whole entry): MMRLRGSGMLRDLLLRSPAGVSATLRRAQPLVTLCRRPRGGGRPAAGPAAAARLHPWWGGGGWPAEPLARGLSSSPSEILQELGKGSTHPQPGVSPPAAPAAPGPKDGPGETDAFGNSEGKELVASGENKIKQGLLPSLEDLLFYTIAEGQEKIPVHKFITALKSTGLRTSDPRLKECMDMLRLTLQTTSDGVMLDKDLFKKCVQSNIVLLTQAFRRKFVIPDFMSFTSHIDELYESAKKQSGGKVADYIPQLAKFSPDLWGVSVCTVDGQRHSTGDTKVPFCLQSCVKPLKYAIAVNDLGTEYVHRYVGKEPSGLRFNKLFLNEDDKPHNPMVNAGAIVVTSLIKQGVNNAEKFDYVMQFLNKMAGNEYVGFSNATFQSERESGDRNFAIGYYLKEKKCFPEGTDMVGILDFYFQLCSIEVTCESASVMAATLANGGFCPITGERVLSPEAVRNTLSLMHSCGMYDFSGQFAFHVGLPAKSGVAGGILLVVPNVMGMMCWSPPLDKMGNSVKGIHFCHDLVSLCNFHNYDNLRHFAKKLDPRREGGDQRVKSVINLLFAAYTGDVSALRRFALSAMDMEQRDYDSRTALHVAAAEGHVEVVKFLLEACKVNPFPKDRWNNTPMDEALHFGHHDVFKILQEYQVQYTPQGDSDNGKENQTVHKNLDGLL

[4] = tested on: A549; assay: Inhibition of glutaminase in human A549 cells assessed as ratio of glutamine to glutamate level (Rv b= 0.45 +/- 0.011); assay type: cell-based
[5] = human, microsomes
Description: Metabolic stability in human liver microsome assessed as intrinsic clearance

[6] = molecular target: T2, Glutaminase liver isoform, mitochondrial (Homo sapiens, UniProt Q9UI32); assay: Inhibition of GLS2 (unknown origin)
T2 sequence (Q9UI32 whole entry): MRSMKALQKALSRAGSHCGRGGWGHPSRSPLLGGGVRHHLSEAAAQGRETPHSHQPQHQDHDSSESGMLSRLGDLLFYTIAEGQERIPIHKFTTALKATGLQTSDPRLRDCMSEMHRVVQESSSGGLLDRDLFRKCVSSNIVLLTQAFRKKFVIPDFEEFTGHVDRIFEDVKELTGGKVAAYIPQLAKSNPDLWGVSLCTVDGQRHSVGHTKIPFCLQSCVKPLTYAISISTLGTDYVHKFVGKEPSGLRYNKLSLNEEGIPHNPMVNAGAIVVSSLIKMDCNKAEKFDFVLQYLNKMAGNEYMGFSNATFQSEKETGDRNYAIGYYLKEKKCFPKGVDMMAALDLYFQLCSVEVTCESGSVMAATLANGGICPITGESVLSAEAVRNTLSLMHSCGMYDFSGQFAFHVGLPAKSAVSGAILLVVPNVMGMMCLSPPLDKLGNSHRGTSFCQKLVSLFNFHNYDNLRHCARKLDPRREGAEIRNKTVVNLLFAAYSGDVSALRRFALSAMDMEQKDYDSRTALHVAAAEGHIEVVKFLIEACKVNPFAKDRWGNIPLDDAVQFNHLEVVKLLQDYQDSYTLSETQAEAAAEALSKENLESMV

[7] = species: Homo sapiens; assay: Selectivity ratio of IC50 for GLS2 (unknown origin) to IC50 for GLS1 (unknown origin)
[8] = tested on: HCT-116; assay: Inhibition of colony formation in human HCT-116 cells at 2 to 8 uM; assay type: functional, cell-based; settings: dose 2-8 µM
[9] = tested on: A549; assay: Inhibition of colony formation in human A549 cells at 2 to 8 uM; assay type: functional, cell-based; settings: dose 2-8 µM
[10] = molecular target: T3, Glutaminase kidney isoform, mitochondrial (Homo sapiens, UniProt O94925); assay: Inhibition of GLS1 (unknown origin)
T3 sequence (O94925 whole entry): T1 sequence (whole entry)

[11] = in vitro; settings: human, liver microsomes
[12] = tested on: A549; assay: Potency index, ratio of BPTES IC50 to test compound IC50 for antiproliferative activity against human A549 cells; assay type: functional
[13] = tested on: HCT-116; assay: Potency index, ratio of BPTES IC50 to test compound IC50 for antiproliferative activity against human HCT-116 cells; assay type: functional
[14] = tested on: A549; assay: Induction of apoptosis in human A549 cells assessed as early apoptotic cells at 10 uM incubated for 48 hrs by annexin V-FITC and propidium iodide based flow cytometry analysis (Rvb =12.289%); assay type: functional
[15] = Cmax in rat at 5 mg/kg, po; assay type: ADME, organism-based; design: dose 5 mg/kg, route po; settings: in vivo
[16] = in vivo; settings: rat, iv, 5 mg/kg
[17] = tested on: A549; assay: Antitumor activity against human A549 cells xenografted in mouse model assessed as tumor growth inhibition at 100 mg/kg once daily via oral gavage administered for 28 days relative to control; assay type: functional; design: scale not given: the % may be the effect or the level left; settings: time 28 day
[18] = Cmax in rat at 5 mg/kg, iv; assay type: ADME, organism-based; design: dose 5 mg/kg, route iv; settings: in vivo
[19] = tested on: A549; assay: Induction of apoptosis in human A549 cells assessed as early apoptotic cells at 5 uM incubated for 48 hrs by annexin V-FITC and propidium iodide based flow cytometry analysis (Rvb =12.289%); assay type: functional
[20] = tested on: HCT-116; assay: Antitumor activity against human HCT-116 cells xenografted in mouse model assessed as tumor growth inhibition at 100 mg/kg once daily via oral gavage administered for 28 days relative to control; assay type: functional; design: scale not given: the % may be the effect or the level left; settings: time 28 day
[21] = AUC(0 to t) in rat at 3 mg/kg, iv; assay type: ADME, organism-based; design: dose 3 mg/kg, route iv; settings: in vivo
[22] = in vivo; settings: rat, po, 5 mg/kg
[23] = Oral bioavailability in rat at 5 mg/kg; assay type: ADME, organism-based; settings: in vivo
[24] = tested on: HCT-116; assay: Antitumor activity against human HCT-116 cells xenografted in mouse model assessed as reduction in tumor cells at 100 mg/kg administered via oral gavage for 28 days; assay type: functional, organism-based; settings: time 28.0 day
[25] = tested on: A549; assay: Induction of apoptosis in human A549 cells assessed as late apoptotic cells at 1 uM incubated for 48 hrs by annexin V-FITC and propidium iodide based flow cytometry analysis (Rvb =9.696%); assay type: functional
[26] = AUC(0 to t) in rat at 5 mg/kg, po; assay type: ADME, organism-based; design: dose 5 mg/kg, route po; settings: in vivo
[27] = AUC(0 to t) in rat at 5 mg/kg, iv; assay type: ADME, organism-based; design: dose 5 mg/kg, route iv; settings: in vivo
[28] = tested on: A549; assay: Induction of apoptosis in human A549 cells assessed as early apoptotic cells at 1 uM incubated for 48 hrs by annexin V-FITC and propidium iodide based flow cytometry analysis (Rvb =12.289%); assay type: functional
[29] = tested on: A549; assay: Induction of apoptosis in human A549 cells assessed as late apoptotic cells at 10 uM incubated for 48 hrs by annexin V-FITC and propidium iodide based flow cytometry analysis (Rvb =9.696%); assay type: functional
[30] = tested on: A549; assay: Induction of apoptosis in human A549 cells assessed as late apoptotic cells at 5 uM incubated for 48 hrs by annexin V-FITC and propidium iodide based flow cytometry analysis (Rvb =9.696%); assay type: functional

Row | IC50 [1] | IC50 [2] | CLH [5] | IC50 [6] | Ratio IC50 [7] | IC50 [10] | half-life [11] | Structure (SMILES) | Ratio [4] | inhibition [8] | inhibition [9] | other results
1 | 980 nM | 550 nM | 46.8 g/mL/min | > 15000 nM | > 100 | 85 nM | > 2 h | Cc1ccccc1CN1CCC(CNC(=O)c2cccc(COCCC3CCN(c4nnc(NC(=O)Cc5ccccc5)s4)CC3)c2)CC1 | 1.49 | Active | Active | Ratio IC50 [3]: 50
2 | 1320 nM | 1690 nM |  |  |  | 290 nM |  | CCCN1CCC(CNC(=O)c2ccc(COCCC3CCN(c4nnc(NC(=O)Cc5ccccc5)s4)CC3)cc2)CC1 |  |  |  | Ratio IC50 [12]: 20; Ratio IC50 [13]: 20
3 | 1360 nM | 2070 nM |  |  |  | 268 nM |  | C=CCCC(=O)N1CCC(CNC(=O)c2ccc(COCCC3CCN(c4nnc(NC(=O)Cc5ccccc5)s4)CC3)cc2)CC1 |  | Active | Active | 
4 | 970 nM | 520 nM | 60.3 g/mL/min | > 15000 nM | > 100 | 79 nM | 1.04 h | CN1CCN(c2cccc(NC(=O)c3ccc(CN4CCN(c5nnc(NC(=O)Cc6ccccc6)s5)CC4)cc3)c2)CC1 | 1.1 |  |  | 
5 | 870 nM | 1130 nM | 21.2 g/mL/min | > 15000 nM | > 100 | 65 nM | > 2 h | CN1CCN(c2cccc(NC(=O)c3cccc(CN4CCN(c5nnc(NC(=O)Cc6ccccc6)s5)CC4)c3)c2)CC1 | 1.17 | Active | Active | 
6 | 740 nM | 340 nM | 22.3 g/mL/min | > 15000 nM | > 100 | 88 nM | > 2 h | CCCCCCN1CCC(CNC(=O)c2ccc(COCCC3CCN(c4nnc(NC(=O)Cc5ccccc5)s4)CC3)cc2)CC1 | 1.42 |  |  | 
7 | 760 nM | 530 nM | 56.4 g/mL/min | > 15000 nM | > 100 | 66 nM | 1.12 h | CN1CCN(c2ccc(C(=O)Nc3ccc(CN4CCN(c5nnc(NC(=O)Cc6ccccc6)s5)CC4)cc3)cc2)CC1 | 0.8 |  |  | 
8 | 650 nM | 260 nM | 35.8 g/mL/min | > 15000 nM | > 100 | 62 nM | > 2 h | CN1CCN(c2cccc(NC(=O)c3ccc(COCCC4CCN(c5nnc(NC(=O)Cc6ccccc6)s5)CC4)cc3)c2)CC1 | 0.74 |  |  | 
9 | 2310 nM | 1510 nM |  |  |  | 320 nM |  | CN1CCC(CNC(=O)c2ccc(COCCC3CCN(c4nnc(NC(=O)Cc5ccccc5)s4)CC3)cc2)CC1 |  |  |  | Ratio IC50 [12]: 20; Ratio IC50 [13]: 20

Row | Structure (SMILES) | IC50 [1] | IC50 [2] | CLH [5] | IC50 [6] | Ratio IC50 [7] | IC50 [10] | half-life [11] | Ratio [4] | inhibition [8] | inhibition [9] | other results
10 | O=C(Cc1ccccc1)Nc1nnc(CCSCCc2nnc(NC(=O)Cc3ccccc3)s2)s1 | 49000 nM | 44000 nM |  |  |  |  |  |  | Active | Active | Activity [14]: 9.331%; Cmax [15]: 17.8 ng/mL; half-life [16]: 3.8 h; Activity [17]: 18.8%; Cmax [18]: 493 ng/mL; Activity [19]: 15.055%; Activity [20]: 22.3%; AUC(0-t) [21]: 2090 ng·h/mL; half-life [22]: 2.6 h; bioavailability [23]: 2.3%; Activity [24]: Active; Activity [25]: 8.746%; AUC(0-t) [26]: 12.5 ng·h/mL; AUCt [27]: 543.3 ng·h/mL; Activity [28]: 15.403%; Activity [29]: 14.31%; Activity [30]: 11.666%

— ChEMBL document CHEMBL5352409, “Design, synthesis, and pharmacological evaluation of 2-(1-(1,3,4-thiadiazol-2-yl)piperidin-4-yl)ethan-1-ol analogs as novel glutaminase 1 inhibitors” (Eur J Med Chem, 2022)
